PubChem BioAssay (NCI)
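Values below derive from 48-hour exposures of cells grown in 96-well plates, with endpoints linearly interpolated between the two concentrations bracketing the appropriate inhibition level. TGI marks complete inhibition of growth.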

Assays:
Experiment in all cases: DTP human tumour cell line panel, 48 h
[1] = system: U251 CNS
[2] = system: UACC-62 melanoma
[3] = system: CCRF-CEM leukemia
[4] = system: NCI/ADR-RES ovarian
[5] = system: SNB-19 CNS
[6] = system: T-47D breast
[7] = system: SF-539 CNS
[8] = system: M14 melanoma
[9] = system: HOP-62 NSCLC
[10] = system: HCT-15 colon
[11] = system: PC-3 prostate
[12] = system: NCI-H226 lung
[13] = system: SK-MEL-5 melanoma
[14] = system: A549 NSCLC
[15] = system: HCC-2998 colon
[16] = system: HT29 colon
[17] = system: ACHN renal
[18] = system: MOLT-4 leukemia
[19] = system: NCI-H23 lung
[20] = system: SF-268 CNS
[21] = system: MDA-MB-435
[22] = system: KM12 colon
[23] = system: OVCAR-3 ovarian
[24] = system: MDA-MB-231 breast
[25] = system: DU-145 prostate
[26] = system: RXF 393 renal
[27] = system: HL-60(TB) leukemia
[28] = system: RPMI-8226 leukemia
[29] = system: K-562 leukemia
[30] = system: OVCAR-8 ovarian
[31] = system: A498 renal
[32] = system: NCI-H460 lung
[33] = system: MALME-3M melanoma
[34] = system: COLO 205 colon
[35] = system: SNB-75 CNS
[36] = system: TK-10 renal
[37] = system: IGROV1 ovarian
[38] = system: SF-295 CNS
[39] = system: HS 578T breast
[40] = system: SK-MEL-2 melanoma
[41] = system: OVCAR-5 ovarian
[42] = system: SW-620 colon
[43] = system: SK-OV-3 ovarian
[44] = system: OVCAR-4 ovarian
[45] = system: CAKI-1 renal
[46] = system: SN12C renal
[47] = system: NCI-H522 lung
[48] = system: LOX IMVI melanoma
[49] = system: HCT-116 colon
[50] = system: EKVX NSCLC
[51] = system: MCF7 breast
[52] = system: MDA-N
[53] = system: UO-31 renal
[54] = system: SK-MEL-28 melanoma
[55] = system: HOP-92 NSCLC
[56] = system: 786-0 renal
[57] = system: UACC-257 melanoma
[58] = system: SR leukemia

N#CCCC1C(C#N)C2(Cl)CC1(Cl)C(Cl)=C2Cl (centres undefined)
TGI [1]: > 10 µM
TGI [2]: > 10 µM
TGI [3]: > 10 µM
TGI [4]: > 10 µM
TGI [5]: > 10 µM
TGI [6]: > 10 µM
TGI [7]: > 10 µM
TGI [8]: > 10 µM
TGI [9]: > 10 µM
TGI [10]: > 10 µM
TGI [11]: > 10 µM
TGI [12]: > 10 µM
TGI [13]: > 10 µM
TGI [14]: > 10 µM
TGI [15]: > 10 µM
TGI [16]: > 10 µM
TGI [17]: > 10 µM
TGI [18]: > 10 µM
TGI [19]: > 10 µM
TGI [20]: > 10 µM
TGI [21]: > 10 µM
TGI [22]: > 10 µM
TGI [23]: > 10 µM
TGI [24]: > 10 µM
TGI [25]: > 10 µM
TGI [26]: > 10 µM
TGI [27]: > 10 µM
TGI [28]: > 10 µM
TGI [29]: > 10 µM
TGI [30]: > 10 µM
TGI [31]: > 10 µM
TGI [32]: > 10 µM
TGI [33]: > 10 µM
TGI [34]: > 10 µM
TGI [35]: > 10 µM
TGI [36]: > 10 µM
TGI [37]: > 10 µM
TGI [38]: > 10 µM
TGI [39]: > 10 µM
TGI [40]: > 10 µM
TGI [41]: > 10 µM
TGI [42]: > 10 µM
TGI [43]: > 10 µM
TGI [44]: > 10 µM
TGI [45]: > 10 µM
TGI [46]: > 10 µM
TGI [47]: > 10 µM
TGI [48]: > 10 µM
TGI [49]: > 10 µM
TGI [50]: > 10 µM
TGI [51]: > 10 µM
TGI [52]: > 10 µM
TGI [53]: > 10 µM
TGI [54]: > 10 µM

C[C@]12CCC(O)CC1=CC[C@@H]1[C@@H]2CC[C@]2(C)C(=O)[C@H](n3ccnc3)C[C@@H]12 (some centres undefined)
TGI [1]: > 100 µM
TGI [2]: > 100 µM
TGI [3]: > 100 µM
TGI [4]: > 100 µM
TGI [5]: > 100 µM
TGI [55]: > 100 µM
TGI [7]: > 100 µM
TGI [8]: > 100 µM
TGI [10]: > 100 µM
TGI [56]: > 100 µM
TGI [11]: > 100 µM
TGI [12]: > 100 µM
TGI [13]: 45.2 µM
TGI [14]: > 100 µM
TGI [16]: > 100 µM
TGI [17]: > 100 µM
TGI [18]: 53.1 µM
TGI [19]: > 100 µM
TGI [20]: > 100 µM
TGI [21]: > 100 µM
TGI [22]: > 100 µM
TGI [23]: > 100 µM
TGI [24]: > 100 µM
TGI [25]: > 100 µM
TGI [26]: > 100 µM
TGI [27]: 40.7 µM
TGI [28]: > 100 µM
TGI [29]: > 100 µM
TGI [30]: > 100 µM
TGI [31]: > 100 µM
TGI [57]: > 100 µM
TGI [32]: > 100 µM
TGI [33]: > 100 µM
TGI [34]: 71 µM
TGI [35]: > 100 µM
TGI [36]: > 100 µM
TGI [37]: > 100 µM
TGI [38]: > 100 µM
TGI [39]: > 100 µM
TGI [40]: > 100 µM
TGI [41]: > 100 µM
TGI [42]: > 100 µM
TGI [44]: > 100 µM
TGI [45]: > 100 µM
TGI [46]: > 100 µM
TGI [58]: > 100 µM
TGI [47]: > 100 µM
TGI [48]: > 100 µM
TGI [49]: > 100 µM
TGI [50]: > 100 µM
TGI [51]: > 100 µM
TGI [52]: > 100 µM
TGI [53]: > 100 µM
TGI [54]: > 100 µM

CN1CCN(C2=NCCO2)CC1
TGI [1]: > 100 µM
TGI [2]: > 100 µM
TGI [3]: > 100 µM
TGI [4]: > 100 µM
TGI [5]: > 100 µM
TGI [6]: > 100 µM
TGI [7]: > 100 µM
TGI [8]: > 100 µM
TGI [9]: > 100 µM
TGI [10]: > 100 µM
TGI [56]: > 100 µM
TGI [11]: > 100 µM
TGI [12]: > 100 µM
TGI [13]: > 100 µM
TGI [14]: > 100 µM
TGI [15]: > 100 µM
TGI [16]: > 100 µM
TGI [17]: > 100 µM
TGI [18]: > 100 µM
TGI [19]: > 100 µM
TGI [20]: > 100 µM
TGI [21]: > 100 µM
TGI [22]: > 100 µM
TGI [23]: > 100 µM
TGI [24]: > 100 µM
TGI [25]: > 100 µM
TGI [26]: > 100 µM
TGI [27]: > 100 µM
TGI [28]: > 100 µM
TGI [29]: > 100 µM
TGI [30]: > 100 µM
TGI [31]: > 100 µM
TGI [57]: > 100 µM
TGI [32]: > 100 µM
TGI [33]: > 100 µM
TGI [34]: > 100 µM
TGI [35]: > 100 µM
TGI [36]: > 100 µM
TGI [37]: > 100 µM
TGI [38]: > 100 µM
TGI [40]: > 100 µM
TGI [41]: > 100 µM
TGI [42]: > 100 µM
TGI [43]: > 100 µM
TGI [44]: > 100 µM
TGI [45]: > 100 µM
TGI [46]: > 100 µM
TGI [58]: > 100 µM
TGI [47]: > 100 µM
TGI [48]: > 100 µM
TGI [49]: > 100 µM
TGI [50]: > 100 µM
TGI [51]: > 100 µM
TGI [52]: > 100 µM
TGI [53]: > 100 µM
TGI [54]: > 100 µM
